In patent publication US20240226125A1, “USE OF SOTAGLIFLOZIN FOR THE TREATMENT OF PATIENTS WITH TYPE 1 DIABETES MELLITUS” (priority 2019, published 2024):

Test system: adult patients with Type 1 Diabetes Mellitus who have inadequate glycemic control with insulin therapy
Assay: inTandem 1 and inTandem 2 pooled double-blind placebo-controlled clinical studies, efficacy
Assay type: in vivo, human
Details: for 2-hour postprandial plasma glucose (mg/dL) LS Mean Difference (SE) / A1C (%) LS Mean Difference (SE) / Body weight (kg) LS Mean Difference (SE) / DDS2 (score) LS Mean Difference (SE) / DTSQ (score) LS Mean Difference (SE) / Fasting plasma glucose (mg/dL) LS Mean Difference (SE) / SBP (mmHg) LS Mean Difference (SE) / Time in range (%) LS Mean Difference (SE): 400 mg vs placebo; for HbA1c change from Baseline, Week 24 Treatment Comparison, LS Mean / HbA1c change from Baseline, Week 52 Treatment Comparison, LS Mean: optimized insulin
[1] = 200 mg, Baseline BMI ≥27 kg/m^2, Week 24
[2] = 200 mg, Baseline BMI ≥27 kg/m^2, Week 52
[3] = Baseline BMI <27 kg/m^2, Week 24
[4] = Baseline BMI <27 kg/m^2, Week 52
[5] = Baseline BMI ≥27 kg/m^2, Week 24
[6] = Baseline BMI ≥27 kg/m^2, Week 52
[7] = 400 mg, Baseline BMI <27 kg/m^2, Week 24
[8] = 400 mg, Baseline BMI <27 kg/m^2, Week 52
[9] = 400 mg, Baseline BMI ≥27 kg/m^2, Week 24
[10] = 400 mg, Baseline BMI ≥27 kg/m^2, Week 52

Compound: CCOc1ccc(Cc2cc([C@@H]3O[C@H](SC)[C@@H](O)[C@H](O)[C@H]3O)ccc2Cl)cc1 [sotagliflozin, (2S,3R,4R,5S,6R)-2-(4-chloro-3-(4-ethoxybenzyl)phenyl)-6-(methylthio)tetrahydro-2H-pyran-3,4,5-triol]
- A1C (%) LS Mean change (SE) [1]: −0.43 (0.034) %
- Body weight (kg) LS Mean change (SE) [1]: −1.93 (0.196) kg
- DDS2 (score) LS Mean change (SE) [1]: −0.5 (0.10) score
- DTSQ (score) LS Mean change (SE) [1]: 2.3 (0.26) score
- Fasting plasma glucose (mg/dL) LS Mean change (SE) [1]: −9.3 (3.33) mg/dL
- SBP (mmHg) LS Mean change (SE) [1]: −2.9 (0.64) mmHg
- Time in range (%) LS Mean change (SE) [1]: 6.254 (2.1983) %
- A1C (%) LS Mean change (SE) [2]: −0.24 (0.041) %
- Body weight (kg) LS Mean change (SE) [2]: −2.16 (0.254) kg
- SBP (mmHg) LS Mean change (SE) [2]: −1.7 (0.66) mmHg
- 2-hour postprandial plasma glucose (mg/dL) LS Mean Difference (SE) [3]: −86.1 (21.27) mg/dL
- A1C (%) LS Mean Difference (SE) [3]: −0.27 (0.063) %
- Body weight (kg) LS Mean Difference (SE) [3]: −2.55 (0.243) kg
- DDS2 (score) LS Mean Difference (SE) [3]: −0.5 (0.16) score
- DTSQ (score) LS Mean Difference (SE) [3]: 1.5 (0.43) score
- Fasting plasma glucose (mg/dL) LS Mean Difference (SE) [3]: −16.4 (5.78) mg/dL
- SBP (mmHg) LS Mean Difference (SE) [3]: −3.5 (0.98) mmHg
- Time in range (%) LS Mean Difference (SE) [3]: 6.335 (3.8492) %
- A1C (%) LS Mean Difference (SE) [4]: −0.21 (0.079) %
- Body weight (kg) LS Mean Difference (SE) [4]: −2.41 (0.324) kg
- SBP (mmHg) LS Mean Difference (SE) [4]: −3.7 (1.08) mmHg
- 2-hour postprandial plasma glucose (mg/dL) LS Mean Difference (SE) [5]: −21.7 (13.93) mg/dL
- A1C (%) LS Mean Difference (SE) [5]: −0.45 (0.045) %
- Body weight (kg) LS Mean Difference (SE) [5]: −3.32 (0.270) kg
- DDS2 (score) LS Mean Difference (SE) [5]: −0.7 (0.13) score
- DTSQ (score) LS Mean Difference (SE) [5]: 2.6 (0.35) score
- Fasting plasma glucose (mg/dL) LS Mean Difference (SE) [5]: −25.0 (4.53) mg/dL
- SBP (mmHg) LS Mean Difference (SE) [5]: −2.5 (0.87) mmHg
- Time in range (%) LS Mean Difference (SE) [5]: 15.051 (2.8562) %
- A1C (%) LS Mean Difference (SE) [6]: −0.38 (0.055) %
- Body weight (kg) LS Mean Difference (SE) [6]: −4.46 (0.353) kg
- SBP (mmHg) LS Mean Difference (SE) [6]: −3.6 (0.89) mmHg
- 2-hour postprandial plasma glucose (mg/dL) LS Mean change (SE) [7]: −69.6 (17.34) mg/dL
- A1C (%) LS Mean change (SE) [7]: −0.34 (0.048) %
- Body weight (kg) LS Mean change (SE) [7]: −1.91 (0.181) kg
- DDS2 (score) LS Mean change (SE) [7]: −0.4 (0.13) score
- DTSQ (score) LS Mean change (SE) [7]: 1.5 (0.33) score
- Fasting plasma glucose (mg/dL) LS Mean change (SE) [7]: −11.5 (4.32) mg/dL
- SBP (mmHg) LS Mean change (SE) [7]: −3.4 (0.75) mmHg
- Time in range (%) LS Mean change (SE) [7]: 4.164 (2.9683) %
- A1C (%) LS Mean change (SE) [8]: −0.20 (0.057) %
- Body weight (kg) LS Mean change (SE) [8]: −1.72 (0.238) kg
- SBP (mmHg) LS Mean change (SE) [8]: −1.0 (0.81) mmHg
- 2-hour postprandial plasma glucose (mg/dL) LS Mean change (SE) [9]: −39.5 (10.72) mg/dL
- A1C (%) LS Mean change (SE) [9]: −0.50 (0.034) %
- Body weight (kg) LS Mean change (SE) [9]: −2.98 (0.193) kg
- DDS2 (score) LS Mean change (SE) [9]: −0.5 (0.10) score
- DTSQ (score) LS Mean change (SE) [9]: 2.2 (0.26) score
- Fasting plasma glucose (mg/dL) LS Mean change (SE) [9]: −18.6 (3.28) mg/dL
- SBP (mmHg) LS Mean change (SE) [9]: −4.0 (0.64) mmHg
- Time in range (%) LS Mean change (SE) [9]: 13.133 (2.0244) %
- A1C (%) LS Mean change (SE) [10]: −0.38 (0.040) %
- Body weight (kg) LS Mean change (SE) [10]: −3.61 (0.249) kg
- SBP (mmHg) LS Mean change (SE) [10]: −3.2 (0.65) mmHg
- Weight, Percent Change from Baseline at Week 24, Treatment Comparison vs. PBO LS Mean (SE) (SOTA 200 mg vs PBO, Week 24): −2.17 (0.188), p < 0.001%
- HbA1c change from Baseline, Week 24 Treatment Comparison, LS Mean (SOTA 200 mg vs PBO, Week 24): −0.36%
- No Weight Gain at Week 52, HbA1c <7.0%: Absolute difference in % (SOTA vs. PBO) (SOTA 200 mg vs PBO, Week 52): 12.6%
- No Weight Gain at Week 52, reduction in HbA1c ≥0.5%: Absolute difference in % (SOTA vs. PBO) (SOTA 200 mg vs PBO, Week 52): 14.9%
- Weight, Percent Change from Baseline at Week 52, Treatment Comparison vs. PBO LS Mean (SE) (SOTA 200 mg vs PBO, Week 52): −3.21 (0.291), p < 0.001%
- HbA1c change from Baseline, Week 52 Treatment Comparison, LS Mean (SOTA 200 mg vs PBO, Week 52): −0.23%
- Weight, Percent Change (%) from Baseline at Week 24, LS Mean (SE) (SOTA 200 mg, Week 24): −1.70 (0.137), p < 0.001%
- No Weight Gain at Week 52: Percentage HbA1c <7.0% (SOTA 200 mg, Week 52): 21.8%
- No Weight Gain at Week 52: Percentage with absolute reduction in HbA1c ≥0.5% (SOTA 200 mg, Week 52): 23.7%
- Weight, Percent Change (%) from Baseline at Week 52, LS Mean (SE) (SOTA 200 mg, Week 52): −2.31 (0.208), p < 0.001%
- Weight, Percent Change from Baseline at Week 24, Treatment Comparison vs. PBO LS Mean (SE) (SOTA 400 mg vs PBO, Week 24): −3.02 (0.188), p < 0.001%
- HbA1c change from Baseline, Week 24 Treatment Comparison, LS Mean (SOTA 400 mg vs PBO, Week 24): −0.38%
- No Weight Gain at Week 52, HbA1c <7.0%: Absolute difference in % (SOTA vs. PBO) (SOTA 400 mg vs PBO, Week 52): 17.0%
- No Weight Gain at Week 52, reduction in HbA1c ≥0.5%: Absolute difference in % (SOTA vs. PBO) (SOTA 400 mg vs PBO, Week 52): 20.0%
- Weight, Percent Change from Baseline at Week 52, Treatment Comparison vs. PBO LS Mean (SE) (SOTA 400 mg vs PBO, Week 52): −4.24 (0.291), p < 0.001%
- HbA1c change from Baseline, Week 52 Treatment Comparison, LS Mean (SOTA 400 mg vs PBO, Week 52): −0.32%
- Weight, Percent Change (%) from Baseline at Week 24, LS Mean (SE) (SOTA 400 mg, Week 24): −2.55 (0.137), p < 0.001%
- No Weight Gain at Week 52: Percentage HbA1c <7.0% (SOTA 400 mg, Week 52): 26.1%
- No Weight Gain at Week 52: Percentage with absolute reduction in HbA1c ≥0.5% (SOTA 400 mg, Week 52): 28.8%
- Weight, Percent Change (%) from Baseline at Week 52, LS Mean (SE) (SOTA 400 mg, Week 52): −3.33 (0.209), p < 0.001%
- efficacy of sotagliflozin versus placebo by BMI subgroup (Week 24, BMI ≥27 kg/m^2 subgroups, A1C, body weight, time in range, DTSQ, DDS2): more pronounced
- A1C levels compared to placebo (primary endpoint) (both doses, after core treatment period and long-term extension period): statistically significant lower A1C levels
